Experiments:
[1] = system: anesthetized dog; test: Effect on the increase in intravesical pressure induced by carbachol in anesthetized dog; type: in vivo; settings: 0.01 mg/kg injected intravenously 5 minutes before carbachol (1.8 μg/kg); female Beagle dogs under halothane anesthesia; N = 3; P < 0.01 vs Control (4.5 ± 0.3)
Experimental: Effect on the increase in intravesical pressure induced by carbachol in anesthetized dog
Female Beagle dogs weighing 8.0-15.0 kg were fasted for 24 hours and maintained under halothane anesthesia. A 12F Foley catheter was lubricated with water soluble jelly, inserted into the urethral orifice and advanced approximately 10 cm until the balloon tip was placed well inside the bladder. The balloon was then inflated with 5 ml of room air and catheter slowly withdrawn just part the first resistance that is felt at the bladder neck. Urine was completely drained out through the catheter, and 30 ml of biological saline was infused. The catheter was connected to pressure transducer, and intravesical pressure was continuously recorded. The test compound was injected intravenously at 5 minutes before the administration of carbachol (1.8 μg/kg).

melting point | SMILES | Increase in intravescial pressure (mmHg) [1]
– | CC(CC(c1ccc(O)cc1)c1ccc(O)cc1)NC[C@H](O)COc1ccccc1.Cl (mixture of isomers) [Test Compound (1), (2S)-1-[[(2RS)-4,4-bis(4-hydroxyphenyl)-2-butyl]amino]-3-phenoxy-2-propanol hydrochloride] [listing 1 of 2 here] | 2.5 ± 0.3 mmHg
79 to 94 °C | COc1ccc(C(C[C@H](C)NC[C@H](O)COc2ccccc2)c2ccc(OC)cc2)cc1.O=C(O)C(=O)O | –
121 to 123 °C | COc1ccc(C(C[C@@H](C)NC[C@H](O)COc2ccccc2)c2ccc(OC)cc2)cc1.O=C(O)C(=O)O | –
73 °C (dec.) | CC(CC(c1ccc(O)cc1)c1ccc(O)cc1)NC[C@H](O)COc1ccccc1.Cl (mixture of isomers) [Test Compound (1), (2S)-1-[[(2RS)-4,4-bis(4-hydroxyphenyl)-2-butyl]amino]-3-phenoxy-2-propanol hydrochloride] [listing 2 of 2 here] | –

Source: patent US20050043371A1, “Aminoalcohol derivatives and their use as beta 3 adrenergic agonists” (Fujisawa Pharmaceutical Co. Ltd., priority 1999, published 2005)
